The target of experiment [1] is Non-receptor tyrosine-protein kinase TYK2 (Homo sapiens) (UniProt P29597). As to the kind of experiment: Inhibition of human TYK2 at 1.82 nM by HotSpot assay relative to control.
Experiment [2] deals with T1, Serine/threonine-protein kinase 3 (Homo sapiens) (UniProt Q13188).
T1 sequence (whole entry): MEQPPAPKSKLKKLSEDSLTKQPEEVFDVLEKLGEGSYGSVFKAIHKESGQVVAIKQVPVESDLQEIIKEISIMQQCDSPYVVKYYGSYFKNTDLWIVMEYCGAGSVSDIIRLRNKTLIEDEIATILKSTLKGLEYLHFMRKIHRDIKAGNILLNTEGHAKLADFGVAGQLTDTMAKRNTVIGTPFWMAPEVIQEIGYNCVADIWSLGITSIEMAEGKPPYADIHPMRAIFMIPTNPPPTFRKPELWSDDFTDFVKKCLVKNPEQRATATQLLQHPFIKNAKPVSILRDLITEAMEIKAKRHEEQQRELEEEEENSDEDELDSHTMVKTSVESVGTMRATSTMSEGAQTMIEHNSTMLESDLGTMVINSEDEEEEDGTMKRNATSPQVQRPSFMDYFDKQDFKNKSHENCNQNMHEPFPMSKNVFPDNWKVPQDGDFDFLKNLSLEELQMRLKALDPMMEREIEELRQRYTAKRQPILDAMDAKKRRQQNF
As to the kind of experiment: Inhibition of human STK3 at 1.82 nM by HotSpot assay relative to control.

In experiment [3] the target is T2, Serine/threonine-protein kinase Nek3 (Homo sapiens) (UniProt P51956).
T2 sequence (whole entry): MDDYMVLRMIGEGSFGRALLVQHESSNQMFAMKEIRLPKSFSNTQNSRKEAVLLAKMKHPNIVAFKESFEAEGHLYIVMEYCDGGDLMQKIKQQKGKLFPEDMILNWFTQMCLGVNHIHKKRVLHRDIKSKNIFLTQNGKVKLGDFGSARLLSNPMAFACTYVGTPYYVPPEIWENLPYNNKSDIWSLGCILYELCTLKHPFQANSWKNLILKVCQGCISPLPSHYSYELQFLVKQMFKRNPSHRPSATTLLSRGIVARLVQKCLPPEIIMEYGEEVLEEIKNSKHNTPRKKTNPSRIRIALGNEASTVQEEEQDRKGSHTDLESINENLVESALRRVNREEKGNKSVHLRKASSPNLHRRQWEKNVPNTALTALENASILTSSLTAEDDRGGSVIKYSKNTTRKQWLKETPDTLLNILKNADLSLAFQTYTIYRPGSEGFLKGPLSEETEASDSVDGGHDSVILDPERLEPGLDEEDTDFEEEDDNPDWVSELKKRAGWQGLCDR
As to the kind of experiment: Inhibition of human NEK3 at 1.82 nM by HotSpot assay relative to control.

For experiment [4], the target named is T3, Tyrosine-protein kinase TXK (Homo sapiens) (UniProt P42681).
T3 sequence (whole entry): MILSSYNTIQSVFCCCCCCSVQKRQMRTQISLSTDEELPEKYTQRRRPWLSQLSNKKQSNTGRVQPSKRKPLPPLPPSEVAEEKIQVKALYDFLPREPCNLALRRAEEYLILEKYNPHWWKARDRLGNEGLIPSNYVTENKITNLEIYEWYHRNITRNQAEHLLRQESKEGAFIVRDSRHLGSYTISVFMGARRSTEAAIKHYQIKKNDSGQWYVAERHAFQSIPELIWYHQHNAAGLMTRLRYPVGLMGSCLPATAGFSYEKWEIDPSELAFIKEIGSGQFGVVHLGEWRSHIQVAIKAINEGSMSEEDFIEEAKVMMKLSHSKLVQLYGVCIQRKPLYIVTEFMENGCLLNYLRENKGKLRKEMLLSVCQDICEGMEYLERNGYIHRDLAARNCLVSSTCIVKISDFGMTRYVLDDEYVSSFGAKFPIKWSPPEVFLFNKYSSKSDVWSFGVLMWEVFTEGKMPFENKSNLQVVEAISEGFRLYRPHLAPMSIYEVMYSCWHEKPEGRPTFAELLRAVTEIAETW
As to the kind of experiment: Inhibition of human TXK at 18.6 nM by HotSpot assay relative to control.

For experiment [5], the target named is T4, Phosphorylase b kinase gamma catalytic chain, liver/testis isoform (Homo sapiens) (UniProt P15735).
T4 sequence (whole entry): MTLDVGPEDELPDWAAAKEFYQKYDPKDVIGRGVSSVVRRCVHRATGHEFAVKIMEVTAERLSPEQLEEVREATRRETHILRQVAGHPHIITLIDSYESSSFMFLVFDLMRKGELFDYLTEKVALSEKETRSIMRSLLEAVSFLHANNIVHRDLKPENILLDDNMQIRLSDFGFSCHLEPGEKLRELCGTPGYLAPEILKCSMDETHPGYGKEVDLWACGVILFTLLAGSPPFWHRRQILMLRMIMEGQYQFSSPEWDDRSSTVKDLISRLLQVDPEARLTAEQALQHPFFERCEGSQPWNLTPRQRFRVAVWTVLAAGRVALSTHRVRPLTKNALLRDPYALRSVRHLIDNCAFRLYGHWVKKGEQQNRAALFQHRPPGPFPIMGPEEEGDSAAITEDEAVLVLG
As to the kind of experiment: Inhibition of human PHKg2 at 18.6 nM by HotSpot assay relative to control.

The target in experiment [6] is T5, Myotonin-protein kinase (Homo sapiens) (UniProt Q09013).
T5 sequence (whole entry): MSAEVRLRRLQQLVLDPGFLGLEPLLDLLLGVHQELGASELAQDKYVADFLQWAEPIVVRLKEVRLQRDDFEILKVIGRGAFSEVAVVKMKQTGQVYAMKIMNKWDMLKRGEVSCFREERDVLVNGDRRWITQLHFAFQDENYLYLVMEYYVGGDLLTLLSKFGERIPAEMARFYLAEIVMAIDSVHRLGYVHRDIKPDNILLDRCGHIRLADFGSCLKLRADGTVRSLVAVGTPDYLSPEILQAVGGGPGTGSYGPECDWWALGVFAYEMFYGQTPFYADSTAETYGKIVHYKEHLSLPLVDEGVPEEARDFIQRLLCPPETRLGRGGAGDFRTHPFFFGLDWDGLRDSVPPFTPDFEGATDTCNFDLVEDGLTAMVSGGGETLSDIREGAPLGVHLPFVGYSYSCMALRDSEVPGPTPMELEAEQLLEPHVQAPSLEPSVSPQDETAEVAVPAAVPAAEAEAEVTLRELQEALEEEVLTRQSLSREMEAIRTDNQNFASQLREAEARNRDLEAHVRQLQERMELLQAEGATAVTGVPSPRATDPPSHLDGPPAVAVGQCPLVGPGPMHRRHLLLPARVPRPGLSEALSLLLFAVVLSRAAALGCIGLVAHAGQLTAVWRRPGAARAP
Nature of the experiment: Inhibition of human DMPK at 18.6 nM by HotSpot assay relative to control.

Experiment [7] addresses Calcium/calmodulin-dependent protein kinase type 1D (Homo sapiens) (UniProt Q8IU85). Nature of the experiment: Inhibition of human CAMK1d at 18.6 nM by HotSpot assay relative to control.
For experiment [8], the target named is Calcium/calmodulin-dependent protein kinase kinase 2 (Homo sapiens) (UniProt Q96RR4). As to the kind of experiment: Inhibition of human CAMKK2 at 18.6 nM by HotSpot assay relative to control.

Usually inhibition stands for the change of the read-out against control, counted positive when it falls.

Sequence of Calcium/calmodulin-dependent protein kinase kinase 2 (Homo sapiens) (Q96RR4 2-588 limits assumed): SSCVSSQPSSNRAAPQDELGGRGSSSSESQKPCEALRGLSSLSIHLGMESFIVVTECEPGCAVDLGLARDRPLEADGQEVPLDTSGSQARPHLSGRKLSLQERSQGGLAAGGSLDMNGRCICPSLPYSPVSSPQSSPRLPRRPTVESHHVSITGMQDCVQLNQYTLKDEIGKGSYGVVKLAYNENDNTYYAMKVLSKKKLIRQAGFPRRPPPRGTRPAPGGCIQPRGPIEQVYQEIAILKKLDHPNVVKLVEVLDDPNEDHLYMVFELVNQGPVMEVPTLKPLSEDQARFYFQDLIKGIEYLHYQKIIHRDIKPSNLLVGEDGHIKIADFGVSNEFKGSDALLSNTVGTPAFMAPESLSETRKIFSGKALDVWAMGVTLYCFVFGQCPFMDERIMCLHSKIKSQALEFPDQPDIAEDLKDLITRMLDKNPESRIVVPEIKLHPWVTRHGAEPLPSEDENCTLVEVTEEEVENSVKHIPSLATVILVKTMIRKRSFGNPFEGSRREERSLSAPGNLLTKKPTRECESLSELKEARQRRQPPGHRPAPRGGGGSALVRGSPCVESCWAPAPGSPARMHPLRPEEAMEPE
Sequence of Non-receptor tyrosine-protein kinase TYK2 (Homo sapiens) (P29597 whole entry): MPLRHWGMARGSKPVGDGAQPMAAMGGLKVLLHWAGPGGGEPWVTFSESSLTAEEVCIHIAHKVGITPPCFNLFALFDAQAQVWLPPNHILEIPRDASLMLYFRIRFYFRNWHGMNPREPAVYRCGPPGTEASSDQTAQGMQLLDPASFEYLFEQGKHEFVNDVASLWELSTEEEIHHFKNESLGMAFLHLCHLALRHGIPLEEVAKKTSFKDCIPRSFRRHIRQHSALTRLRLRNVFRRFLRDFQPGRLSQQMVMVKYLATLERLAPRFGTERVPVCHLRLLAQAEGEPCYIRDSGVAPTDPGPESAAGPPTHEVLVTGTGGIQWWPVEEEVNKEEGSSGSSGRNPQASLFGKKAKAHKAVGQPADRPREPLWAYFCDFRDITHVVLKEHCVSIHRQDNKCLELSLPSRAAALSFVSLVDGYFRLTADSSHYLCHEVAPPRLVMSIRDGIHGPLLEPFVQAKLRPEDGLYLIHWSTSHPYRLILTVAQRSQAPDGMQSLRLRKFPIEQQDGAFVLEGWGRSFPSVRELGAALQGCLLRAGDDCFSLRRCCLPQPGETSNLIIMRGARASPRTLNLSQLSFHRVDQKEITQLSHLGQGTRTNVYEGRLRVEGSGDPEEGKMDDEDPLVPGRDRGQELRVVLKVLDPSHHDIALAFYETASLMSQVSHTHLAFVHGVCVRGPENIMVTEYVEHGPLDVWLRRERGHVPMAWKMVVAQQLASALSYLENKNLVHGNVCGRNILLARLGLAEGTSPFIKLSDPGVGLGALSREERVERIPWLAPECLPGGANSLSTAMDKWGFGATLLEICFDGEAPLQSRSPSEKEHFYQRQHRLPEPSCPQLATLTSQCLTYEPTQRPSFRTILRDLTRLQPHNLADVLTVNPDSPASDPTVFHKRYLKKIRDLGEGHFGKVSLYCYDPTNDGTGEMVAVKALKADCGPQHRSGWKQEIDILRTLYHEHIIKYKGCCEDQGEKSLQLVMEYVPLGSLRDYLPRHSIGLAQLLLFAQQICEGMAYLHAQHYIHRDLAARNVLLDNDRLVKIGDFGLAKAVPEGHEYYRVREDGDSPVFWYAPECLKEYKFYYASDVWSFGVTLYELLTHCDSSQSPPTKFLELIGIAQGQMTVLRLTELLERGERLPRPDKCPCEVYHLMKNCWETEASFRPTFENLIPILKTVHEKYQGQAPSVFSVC
Sequence of Calcium/calmodulin-dependent protein kinase type 1D (Homo sapiens) (Q8IU85 whole entry, looked up): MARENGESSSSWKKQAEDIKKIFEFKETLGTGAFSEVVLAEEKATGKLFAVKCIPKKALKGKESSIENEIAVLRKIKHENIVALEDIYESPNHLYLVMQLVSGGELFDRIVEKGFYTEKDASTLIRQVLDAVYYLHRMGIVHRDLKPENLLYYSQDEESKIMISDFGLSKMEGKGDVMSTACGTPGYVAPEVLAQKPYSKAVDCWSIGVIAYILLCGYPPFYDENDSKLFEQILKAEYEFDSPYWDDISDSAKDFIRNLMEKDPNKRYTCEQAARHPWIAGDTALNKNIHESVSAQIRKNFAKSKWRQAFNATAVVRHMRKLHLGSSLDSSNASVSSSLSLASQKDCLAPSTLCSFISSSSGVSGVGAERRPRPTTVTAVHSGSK

With `C[C@@]1(C(=O)Nc2ccc(F)nc2)CCCN1c1nc(Nc2cc(C3CC3)n[nH]2)c2cccn2n1`, the inhibition in experiment [1] was 1.02%; in experiment [2], 1.56%; in experiment [3], 1.63%.

Consider `C[C@]1(O)C[C@@H](c2nc(-c3ccc4ccc(-c5ccccc5)nc4c3)c3c(N)nccn32)C1`, for which the inhibition in experiment [4] is -8.77%; in experiment [5], -2.29%; in experiment [6], -3.25%; in experiment [7], -0.1%; in experiment [8] it was 28%.
